Results reported in patent US8404683B2, “Inhibitors of the interaction between MDM2 and P53” (Janssen Pharmaceutical N.V., priority 2004, dated 2013).

Assays:
U87MG cells = assay: Proliferation assay (MTT-based) on U87MG tumour cells; details: Homo sapiens, U-87 MG, 96 h, 4 days of incubation, negative log value of the IC50-value, read-out: cell proliferation pIC50 (converted)
Summary of the method: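 Human glioblastoma U87MG cells (wild-type p53) exposed to compound for 4 days at ≤0.1% DMSO, then MTT added for 2 h at 37 °C and absorbance read at 540 nm. Growth expressed as % of untreated control; IC50 by probit analysis, reported as pIC50.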

N#Cc1ccc2[nH]cc(C(O)C(=O)Nc3ccc(Nc4ccncc4)cc3)c2c1 (stereo not shown) [Compound 113]
IC50 (U87MG cells): > 10 µM
melting point: 154 °C

c1ccc2c(CCNc3ccc(Nc4ncnc5[nH]ccc45)cc3)c[nH]c2c1 [Compound 117]
IC50 (U87MG cells): > 10 µM
melting point: 211 °C
